The subject of one assay is HeLa cells. The experiment in a line: HeLa wound healing (motility) assay. In kind it is cell-based, human. As to conditions: 20 μM, after 24 h, uncoated glass; control 30.6±5.4%. The procedure: For wound healing assays, 200 μl of HeLa cells were plated on 35 mm borosilicate glass imaging dishes at 300,000 cells/ml concentrations and incubated for 24 hours. Prior to wounding, cells were incubated in 20 μM of neurelaxin-A for an hour. After one hour, scratches were made with pipette tips in monolayer cultures and the motility of cells for occupying the wound was monitored for 24 hours with a Foculus Digital Camera (IEEE1394). Analysis of cell motility was carried out by ImageJ, by measuring the distance between two lines fitted on the two sides of the approaching cell edges created by the pipette tips.
To test the effect of neurelaxin-A on the motility of HeLa cells on uncoated glass surface, wound-healing assays were carried out in the absence and in the presence of 20 μM concentrations of the inhibitor.
After 24 h, the percent of migration was measured for each sample. The control corresponds to a sample in the absence of inhibitor.

Assay [1] has as its system HeLa Kyoto H2B-mCherry eGFP-α-tubulin cells. The experiment in a line: Inhibition of cytokinesis / cell growth of HeLa cells. The class given is cell-based, human. The following applies: 25 μM, 3rd day. The protocol:
For cell growth assays, HeLa Kyoto H2B-mCherry eGFP-α-tubulin cells were grown on an eight-chambered Lab-Tek borosilicate cover glass system, with the initial cell concentration of 100,000 cells/ml. As soon as the cells attached to the surface, they were treated with 0, 2, 5, 10, 25 or 50 μM concentrations of neurelaxin-A. Cells were grown for three days in the presence of the indicated inhibitor concentrations and cell numbers were quantified each day. The final vol/vol % of DMSO in all experiments was 0.1. Data analysis was carried out by Fiji software. On the third day of the experiment, multinuclear cells were visualized by using a Zeiss LSM 710 with a Plan Apo 20×/0.8 objective.
Another important phenotypic effect of non-muscle myosin 2 inhibition is the blocking of cytokinesis and consequently, the increasing number of multinucleated cells and the relatively low total cell number in human cancer cell cultures (Straight et al. Science, 2003, 299 (5613), pp 1743-1747). Therefore, the ratio of multinuclear cells and total cell number of HeLa cells was measured in time at different concentrations of neurelaxin-A (FIGS. 3F and 3G).
Cells incubated in different concentrations of the inhibitors were counted on each day for three days. […] In parallel with this phenomenon, the ratio of multinuclear cells increased with increasing inhibitor concentration.

The target in assay [2] is T1, Dictyostelium discoideum myosin 2 motor domain (DdMD) (Dictyostelium discoideum, UniProt P08799).
T1 construct: Dictyostelium discoideum myosin 2 motor domain (DdMD)
T1 sequence (P08799 86-759 limits assumed): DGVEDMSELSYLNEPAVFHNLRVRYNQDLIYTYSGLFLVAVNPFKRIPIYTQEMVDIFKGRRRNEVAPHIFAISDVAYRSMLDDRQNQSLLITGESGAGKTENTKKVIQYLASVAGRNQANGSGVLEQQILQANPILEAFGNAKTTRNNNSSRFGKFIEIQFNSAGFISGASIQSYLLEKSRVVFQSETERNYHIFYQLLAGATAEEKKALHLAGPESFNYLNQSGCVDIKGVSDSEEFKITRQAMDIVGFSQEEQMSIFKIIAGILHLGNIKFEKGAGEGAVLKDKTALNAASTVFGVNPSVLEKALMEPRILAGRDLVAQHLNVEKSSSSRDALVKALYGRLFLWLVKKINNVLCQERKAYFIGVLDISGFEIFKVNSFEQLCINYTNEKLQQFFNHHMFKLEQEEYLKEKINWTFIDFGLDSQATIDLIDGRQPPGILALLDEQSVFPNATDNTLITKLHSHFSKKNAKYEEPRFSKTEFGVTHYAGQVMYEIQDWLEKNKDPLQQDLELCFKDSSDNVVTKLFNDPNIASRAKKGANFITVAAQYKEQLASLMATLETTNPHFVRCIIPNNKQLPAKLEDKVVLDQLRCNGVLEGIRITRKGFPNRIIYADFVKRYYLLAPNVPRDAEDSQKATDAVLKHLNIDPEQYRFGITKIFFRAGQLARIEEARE
The experiment in a line: Steady state MgATPase, NADH-coupled assay, DdMD. The following applies: for IC50: 20° C. The class given is biochemical. The procedure:
MgATPase activities of 500 nM (for basal ATPase) or 50 nM (for actin activated ATPase) SkS1 (rabbit skeletal S1 fragment) 23 and 1 μM (for basal ATPase) or 300 nM (for actin activated ATPase) DdMD were measured at increasing concentrations of neurelaxin-A in the absence or in the presence of 45 μM actin for SkS1 or 15 μM actin for DdMD. Measurements were carried out using a pyruvate kinase/lactate dehydrogenase coupled assay (NADH-coupled assay) (Kovacs M. et al., J. Biol. Chem. 2004, 279 (34), pp 35557-35563) at 25° C. or 20° C. in case of SkS1 or DdMD, respectively. Myosin and actin together with the indicated concentration of the inhibitor were pre-incubated for 5 minutes at room temperature and the measurements were initiated with 1 mM ATP. Data were corrected for background ATPase activity of actin. G-actin was prepared accordingly from rabbit skeletal muscle (Spudich, J. A. & Watt, S.; The Journal of Biological Chemistry 246, 1971, pp 4866-4871) and polymerized by 2 mM MgCl2 for 1 hour at room temperature. Measurements were performed in low salt buffer containing 5 mM HEPES, 2 mM MgCl2, 0.1 mM EGTA and 2 mM DTT at pH 7.2 or assay buffer containing 20 mM HEPES, 40 mM NaCl, 4 mM MgCl2 at pH 7.3 for basal ATPase activity measurements with DdMD.
The basal and actin activated ATPase activities of rabbit skeletal muscle myosin S1 (SkS1) and Dictyostelium discoideum myosin 2 motor domain (DdMD) were measured at increasing concentrations of neurelaxin-A (FIGS. 3A and 3B).

In assay [3] the test system is embryonic mouse hippocampal cells. The experiment in a line: Neurite growth in embryonic hippocampal cell culture. The class given is cell-based. As to conditions: 50 μM. The protocol:
Embryonic mouse hippocampal cells were isolated from 17-day-old embryo and cultured on poly-D-lysine coated dish in neurobasal medium complemented with B27, FCS and glutamax for 20 hours.
The growth of neurites was monitored by phase contrast microscopy after the addition of 50 μM neurelaxin-A (Imaging buffer: Extracell isotonic salt solution, buffered with 5 mM HEPES).

Like-named read-outs stand apart in the source and are kept apart here.

In general, IC50 refers to the midpoint of a concentration-inhibition curve. For `Cc1ccc2c(c1)C(=O)C1(O)CCN(c3ccc(N)cc3)C1=N2` (centres unmarked) [Neurelaxin-A, 1-(4-aminophenyl)-3a-hydroxy-6-methyl-3,3a-dihydro-1H-pyrrolo[2,3-b]quinolin-4(2H)-one], the “relative migration of HeLa cells (100% = total diameter of the wound)” value with HeLa cells is on record as 62.6±3.6%. The “effect on cytokinesis / cell number” value in assay [1] is recorded as “completely inhibited cytokinesis”. Also, the “inhibition reached, actin activated ATPase of DdMD” value in assay [2] (actin activated) was found to be 80%. The IC50 was 6.7 ± 1.9 µM in assay [2] (actin activated, 300 nM DdMD, 15 μM actin, read-out: IC50 actin activated ATPase activity of DdMD) and 6.6 ± 2 µM in assay [2] (basal, 1 μM DdMD, read-out: IC50 basal ATPase of DdMD). In addition, the “inhibition reached, basal ATPase of DdMD” value in assay [2] (basal) worked out at 90%. Besides, the “rate of neurite growth” value in assay [3] is on record as 1 μm/min; in assay [3] (listed as neurelaxin-A), “approximately 1 μm/min”.

The record behind these values is patent publication US10858357B2, “Water-soluble myosin 2 inhibitors for the treatment of neurological, neuropathic or psychiatric diseases” (PARIS SCIENCES ET LETTRES-QUARTIER LATIN, priority 2016, dated 2020).
